Values quoted from earlier work in article PMC8845813 (Angewandte Chemie (International ed. in English), 2021).

Test system: LC3A and LC3B LIR-interaction interface

In the case of `CO[C@@H]1[C@@H](OC(N)=O)[C@@H](O)[C@H](Oc2ccc3c(O)c(NC(=O)c4ccc(O)c(CC=C(C)C)c4)c(=O)oc3c2C)OC1(C)C` [novobiocin], the “potency at LC3A and LC3B LIR-interaction interface” value is given as “weak potency”.
